Data: ChEMBL document CHEMBL6096736, “Development of a Highly Selective Ferroptosis Inducer Targeting GPX4 with 2-Ethynylthiazole-4-carboxamide as Electrophilic Warhead” (J Med Chem, 2025)
Each block holds one molecule with its values, some of them ahead of it. Calls of active or inactive are those of the source. The rule behind the calls is not given here.

Assays:
HT-1080 [1] = experiment: Cytotoxicity against human HT-1080 cells assessed as cell viability incubated for 24 hrs by CCK-8 assay; conditions: HT-1080, 24 h
HT-1080 [2] = experiment: Induction of ferroptosis in human HT-1080 cells assessed as reduction in cell viability incubated for 24 hrs in presence of Fer-1 by CCK-8 assay; conditions: HT-1080, 24 h
[3] = Selectivity index, ratio of IC50 for cytotoxicity against human HT-1080 cells assessed as cell viability incubated for 24 hrs by CCK-8 assay to IC50 for induction of ferroptosis in human HT-1080 cells assessed as reduction in cell viability incubated for 24 hrs […] by CCK-8 assay; type: functional
[4] = target: T1, Phospholipid hydroperoxide glutathione peroxidase GPX4 (Homo sapiens, UniProt P36969); experiment: Binding affinity to human GPX4 assessed as dissociation constant by MST assay
T1 sequence (P36969 whole entry): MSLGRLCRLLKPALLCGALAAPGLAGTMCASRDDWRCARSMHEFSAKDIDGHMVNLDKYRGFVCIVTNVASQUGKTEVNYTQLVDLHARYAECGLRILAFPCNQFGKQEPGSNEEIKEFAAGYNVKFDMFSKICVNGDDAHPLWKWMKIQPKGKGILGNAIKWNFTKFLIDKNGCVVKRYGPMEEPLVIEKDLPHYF

HT-1080 [5] = experiment: Induction of morphological changes in human HT-1080 cells assessed as appearance of round shaped mitochondria by TEM analysis; type: functional, cell-based
HT-1080 [6] = experiment: Induction of morphological changes in human HT-1080 cells assessed as […] of mitochondria cristas by TEM analysis; type: functional, cell-based
HT-1080 [7] = experiment: Induction of ferroptosis in human HT-1080 cells assessed as increase in cellular ROS level at 0.1 uM incubated for 3 hrs by DCFH-DA staining based flow cytometry analysis; type: functional, cell-based
HT-1080 [8] = experiment: Induction of ferroptosis in human HT-1080 cells assessed as increase in cellular LPO level at 0.1 uM incubated for 3 hrs by BIODPY-C11 probe based flow cytometry analysis; type: functional, cell-based
HT-1080 [9] = experiment: Induction of ferroptosis in human HT-1080 cells assessed as increase in cellular MDA level at 0.1 uM incubated for 6 hrs; type: functional, cell-based
HT-1080 [10] = experiment: Induction of ferroptosis in human HT-1080 cells assessed as increase in cellular ROS level at 0.5 uM incubated for 3 hrs by DCFH-DA staining based flow cytometry analysis; type: functional, cell-based
HT-1080 [11] = experiment: Induction of ferroptosis in human HT-1080 cells assessed as increase in cellular LPO level at 0.5 uM incubated for 3 hrs by BIODPY-C11 probe based flow cytometry analysis; type: functional, cell-based

SMILES: Cc1onc(C(=O)N(c2ccc(-c3cnco3)cc2)C(C(=O)NCCc2ccccc2)c2csc3ccccc23)c1[N+](=O)[O-] (stereo not given)
IC50 (HT-1080 [1]): > 5 µM

SMILES: C#Cc1nc(C(=O)N(c2ccc(-c3cnco3)cc2)C(C(=O)NC(C)(C)C)c2cccc3ccccc23)cs1 (stereo not given)
IC50 (HT-1080 [1]): 0.022 µM
IC50 (HT-1080 [2]): 8.65 µM
Ratio IC50 [3]: 393

SMILES: C#Cc1nc(C(=O)N(c2ccc(-c3cnco3)cc2)C(C(=O)NC(C)(C)C)c2cncs2)cs1 (stereo not given)
IC50 (HT-1080 [1]): 0.5 µM
IC50 (HT-1080 [2]): 9.43 µM
Ratio IC50 [3]: 17

SMILES: C#Cc1nc(C(=O)N(c2ccc(-c3cnco3)cc2)C(C(=O)NC(C)(C)C)c2ccncn2)cs1 (stereo not given)
IC50 (HT-1080 [1]): 0.354 µM
IC50 (HT-1080 [2]): 8.16 µM
Ratio IC50 [3]: 23

SMILES: C#Cc1nc(C(=O)N(c2ccc(C(F)(F)F)cc2)C(C(=O)NC(C)(C)C)c2csc3ccccc23)cs1 (stereo not given)
IC50 (HT-1080 [1]): 0.027 µM
IC50 (HT-1080 [2]): 8.41 µM
Ratio IC50 [3]: 311

SMILES: O=C(NCCc1ccccc1)C(c1csc2ccccc12)N(C(=O)c1ccc([N+](=O)[O-])o1)c1ccc(-c2cnco2)cc1 (stereo not given)
IC50 (HT-1080 [1]): > 5 µM

SMILES: O=C(NCCc1ccccc1)C(c1csc2ccccc12)N(C(=O)c1cc([N+](=O)[O-])[nH]n1)c1ccc(-c2cnco2)cc1 (stereo not given)
IC50 (HT-1080 [1]): > 5 µM

SMILES: C#Cc1nc(C(=O)N(c2ccc(-c3cnco3)cc2)C(C(=O)NC(C)(C)C)c2c[nH]c3ccccc23)cs1 (stereo not given)
IC50 (HT-1080 [1]): 0.098 µM
IC50 (HT-1080 [2]): 8.42 µM
Ratio IC50 [3]: 86

SMILES: C#Cc1nc(C(=O)N(c2ccc(-c3cnco3)cc2)[C@H](C(=O)NC(C)(C)C)c2csc3ccccc23)cs1
IC50 (HT-1080 [1]): 0.012 µM
IC50 (HT-1080 [2]): 11.7 µM

SMILES: C#Cc1nc(C(=O)N(c2ccc(-c3cnco3)cc2)C(C(=O)NC(C)(C)C)C2CCCCC2)cs1 (stereo not given)
IC50 (HT-1080 [1]): 0.354 µM
IC50 (HT-1080 [2]): 8.16 µM
Ratio IC50 [3]: 23

SMILES: O=C(NCCc1ccccc1)C(c1csc2ccccc12)N(C(=O)c1ccc([N+](=O)[O-])s1)c1ccc(-c2cnco2)cc1 (stereo not given)
IC50 (HT-1080 [1]): > 5 µM

SMILES: C#Cc1nc(C(=O)N(c2ccc(-c3cnco3)cc2)C(C(=O)NCCc2ccccc2)c2csc3ccccc23)cs1 (stereo not given)
IC50 (HT-1080 [1]): 0.021 µM
IC50 (HT-1080 [2]): 9.03 µM
Ratio IC50 [3]: 430

SMILES: COC(=O)c1ccc([C@H]2c3[nH]c4ccccc4c3C[C@H](C(=O)OC)N2C(=O)CCl)cc1
Kd [4]: 0.0437 µM
Activity (HT-1080 [10]): Active
Activity (HT-1080 [11]): Active

The next lines start with results.

IC50 (HT-1080 [2]): 4.23 µM
SMILES: C#Cc1nc(C(=O)N(c2ccc(-n3cncn3)cc2)C(C(=O)NC(C)(C)C)c2csc3ccccc23)cs1 (stereo not given)
IC50 (HT-1080 [1]): 0.356 µM
Ratio IC50 [3]: 12

IC50 (HT-1080 [2]): 4.6 µM
Kd [4]: 0.0247 µM
SMILES: O=C(NCCc1ccccc1)C(c1csc2ccccc12)N(C(=O)CCl)c1ccc(-c2cnco2)cc1 (stereo not given)
IC50 (HT-1080 [1]): 0.121 µM
Ratio IC50 [3]: 38
Activity (HT-1080 [5]): Active
Activity (HT-1080 [6]): Active
Activity (HT-1080 [7]): Active
Activity (HT-1080 [8]): Active
Activity (HT-1080 [9]): Active

IC50 (HT-1080 [2]): 6.34 µM
SMILES: C#Cc1nc(C(=O)N(c2ccc(-c3cnco3)cc2)C(C(=O)NC(C)(C)C)c2ccsc2)cs1 (stereo not given)
IC50 (HT-1080 [1]): 0.207 µM
Ratio IC50 [3]: 30.6

IC50 (HT-1080 [2]): 3.05 µM
SMILES: C#Cc1nc(C(=O)N(c2ccc(-c3cnco3)cc2)C(C(=O)NC(C)(C)C)c2csc3ccccc23)cs1 (stereo not given)
IC50 (HT-1080 [1]): 0.07 µM

IC50 (HT-1080 [2]): 6.83 µM
SMILES: C#Cc1nc(C(=O)N(c2ccc(-n3cccn3)cc2)C(C(=O)NC(C)(C)C)c2csc3ccccc23)cs1 (stereo not given)
IC50 (HT-1080 [1]): 0.239 µM
Ratio IC50 [3]: 29

IC50 (HT-1080 [2]): 4.75 µM
SMILES: C#CC(=O)N(c1ccc(-c2cnco2)cc1)C(C(=O)NCCc1ccccc1)c1csc2ccccc12 (stereo not given)
IC50 (HT-1080 [1]): 0.425 µM
Ratio IC50 [3]: 11

IC50 (HT-1080 [2]): 3.87 µM
SMILES: C#Cc1nc(C(=O)N(c2ccc(-c3cnco3)cc2)C(C(=O)NC2CCCCC2)c2csc3ccccc23)cs1 (stereo not given)
IC50 (HT-1080 [1]): 0.017 µM
Ratio IC50 [3]: 228

IC50 (HT-1080 [2]): 6.79 µM
SMILES: C#Cc1nc(C(=O)N(c2ccc(-c3cnco3)cc2)C(C(=O)NC(C)(C)C)c2cccs2)cs1 (stereo not given)
IC50 (HT-1080 [1]): 0.341 µM
Ratio IC50 [3]: 19.9

IC50 (HT-1080 [2]): 6.12 µM
SMILES: C#Cc1nc(C(=O)N(c2ccc(-c3cnco3)cc2)C(C(=O)NCc2ccccc2)c2csc3ccccc23)cs1 (stereo not given)
IC50 (HT-1080 [1]): 0.032 µM
Ratio IC50 [3]: 191

IC50 (HT-1080 [2]): 3.75 µM
SMILES: C=CC(=O)N(c1ccc(-c2cnco2)cc1)C(C(=O)NCCc1ccccc1)c1csc2ccccc12 (stereo not given)
IC50 (HT-1080 [1]): 0.064 µM
Ratio IC50 [3]: 58

IC50 (HT-1080 [2]): 6.2 µM
SMILES: C#Cc1nc(C(=O)N(c2ccc(-c3cnco3)cc2)C(C(=O)NC(C)(C)C)C2=CCCOC2)cs1 (stereo not given)
IC50 (HT-1080 [1]): 0.415 µM
Ratio IC50 [3]: 15

IC50 (HT-1080 [2]): 7.16 µM
SMILES: C#Cc1nc(C(=O)N(c2ccc(-c3cnco3)cc2)C(C(=O)NC(C)(C)C)c2cc[nH]n2)cs1 (stereo not given)
IC50 (HT-1080 [1]): 0.375 µM
Ratio IC50 [3]: 19

IC50 (HT-1080 [2]): 6.14 µM
SMILES: C#Cc1nc(C(=O)N(c2ccc(-c3cnco3)cc2)C(C(=O)NC(C)(C)C)c2c[nH]cn2)cs1 (stereo not given)
IC50 (HT-1080 [1]): 0.459 µM
Ratio IC50 [3]: 13

IC50 (HT-1080 [2]): 7.41 µM
SMILES: C#Cc1nc(C(=O)N(c2ccc(-c3cnco3)cc2)C(C(=O)NC(C)(C)C)c2ccc[nH]2)cs1 (stereo not given)
IC50 (HT-1080 [1]): 0.12 µM
Ratio IC50 [3]: 61.7

IC50 (HT-1080 [2]): 4.76 µM
SMILES: C#Cc1nc(C(=O)N(c2ccc(-n3ccnc3)cc2)C(C(=O)NC(C)(C)C)c2csc3ccccc23)cs1 (stereo not given)
IC50 (HT-1080 [1]): 0.345 µM
Ratio IC50 [3]: 14
